The supplement of paper PMC11451515

System: P12-Ichikawa
Assay: cell viability relative to DMSO control; higher = less cytotoxic
Conditions: 48 h
In short: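 Library compounds in DMSO were pin-dosed into 1536-well plates (5 μl) holding NOMO1 or SEM (500 cells/well) or P12-Ichikawa (1000 cells/well) leukemia cells, across an 11-point threefold series of 47 μM to 0.79 nM. Each cell line had been adapted for at least four passages in each medium. CellTiter-Glo One luminescence was read after 48 h at 37°C. Viability is the per-plate percentage relative to DMSO wells, with cell-free wells as background.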

[1] = HPLM + 10% dialyzed FBS, 0.000781 µM
[2] = HPLM + 10% dialyzed FBS, 0.00234 µM
[3] = HPLM + 10% dialyzed FBS, 0.00702 µM
[4] = HPLM + 10% dialyzed FBS, 0.0211 µM
[5] = HPLM + 10% dialyzed FBS, 0.0632 µM
[6] = HPLM + 10% dialyzed FBS, 0.19 µM
[7] = HPLM + 10% dialyzed FBS, 0.569 µM
[8] = HPLM + 10% dialyzed FBS, 1.71 µM
[9] = HPLM + 10% dialyzed FBS, 5.12 µM
[10] = HPLM + 10% dialyzed FBS, 15.4 µM
[11] = HPLM + 10% dialyzed FBS, 46.1 µM
[12] = RPMI 5 mM glucose + 10% FBS, 0.000781 µM
[13] = RPMI 5 mM glucose + 10% FBS, 0.00234 µM
[14] = RPMI 5 mM glucose + 10% FBS, 0.00702 µM
[15] = RPMI 5 mM glucose + 10% FBS, 0.0211 µM
[16] = RPMI 5 mM glucose + 10% FBS, 0.0632 µM
[17] = RPMI 5 mM glucose + 10% FBS, 0.19 µM
[18] = RPMI 5 mM glucose + 10% FBS, 0.569 µM
[19] = RPMI 5 mM glucose + 10% FBS, 1.71 µM
[20] = RPMI 5 mM glucose + 10% FBS, 5.12 µM
[21] = RPMI 5 mM glucose + 10% FBS, 15.4 µM
[22] = RPMI 5 mM glucose + 10% FBS, 46.1 µM
[23] = RPMI 5 mM glucose + 10% dialyzed FBS, 0.000781 µM
[24] = RPMI 5 mM glucose + 10% dialyzed FBS, 0.00234 µM
[25] = RPMI 5 mM glucose + 10% dialyzed FBS, 0.00702 µM
[26] = RPMI 5 mM glucose + 10% dialyzed FBS, 0.0211 µM
[27] = RPMI 5 mM glucose + 10% dialyzed FBS, 0.0632 µM
[28] = RPMI 5 mM glucose + 10% dialyzed FBS, 0.19 µM
[29] = RPMI 5 mM glucose + 10% dialyzed FBS, 0.569 µM
[30] = RPMI 5 mM glucose + 10% dialyzed FBS, 1.71 µM
[31] = RPMI 5 mM glucose + 10% dialyzed FBS, 5.12 µM
[32] = RPMI 5 mM glucose + 10% dialyzed FBS, 15.4 µM
[33] = RPMI 5 mM glucose + 10% dialyzed FBS, 46.1 µM

| Compound | cell viability [1] [%] | cell viability [2] [%] | cell viability [3] [%] | cell viability [4] [%] | cell viability [5] [%] | cell viability [6] [%] | cell viability [7] [%] | cell viability [8] [%] | cell viability [9] [%] | cell viability [10] [%] | cell viability [11] [%] | cell viability [12] [%] | cell viability [13] [%] | cell viability [14] [%] | cell viability [15] [%] | cell viability [16] [%] | cell viability [17] [%] | cell viability [18] [%] | cell viability [19] [%] | cell viability [20] [%] | cell viability [21] [%] | cell viability [22] [%] | cell viability [23] [%] | cell viability [24] [%] | cell viability [25] [%] | cell viability [26] [%] | cell viability [27] [%] | cell viability [28] [%] | cell viability [29] [%] | cell viability [30] [%] | cell viability [31] [%] | cell viability [32] [%] | cell viability [33] [%] |
| --- | --- | --- | --- | --- | --- | --- | --- | --- | --- | --- | --- | --- | --- | --- | --- | --- | --- | --- | --- | --- | --- | --- | --- | --- | --- | --- | --- | --- | --- | --- | --- | --- | --- |
| CCOC(=O)Nc1ccc(NCc2ccc(F)cc2)cc1N | 112 | 116 | 116 | 121 | 115 | 110 | 107 | 112 | 101 | 98.6 | 78.6 | 113 | 122 | 122 | 109 | 122 | 114 | 118 | 114 | 109 | 107 | 102 | 118 | 113 | 122 | 118 | 110 | 121 | 113 | 111 | 98.3 | 103 | 87.4 |
| O=C1\C=C(/OC2=C1C=CC=C2C3=CC=CC=C3)N4CCOCC4 | 88.3 | 93 | 95.2 | 91.3 | 96.3 | 90.1 | 94.4 | 86.5 | 87.6 | 85.3 | 87.1 | 89.1 | 84.5 | 87.6 | 89.8 | 91.5 | 86 | 75.4 | 76.8 | 81.2 | 74.1 | 67.9 | 86.7 | 84.4 | 84.1 | 84.6 | 89.7 | 84.1 | 86 | 77.2 | 82.4 | 80.3 | 74.1 |
| COc1cc(N2CCC(O)CC2)ccc1Nc1cc(Nc2ccccc2[S+](=O)([O-])C(C)C)c2cc[nH]c2n1 | 91.6 | 88.2 | 86 | 91.3 | 93 | 85.3 | 78.4 | 85.1 | 84.4 | 84.4 | 80.2 | 78.4 | 85.5 | 85.2 | 85.4 | 87.2 | 88 | 81.3 | 81.8 | 80.8 | 77.4 | 66.9 | 85 | 85.2 | 86.5 | 83.7 | 87.1 | 80.7 | 85 | 83.7 | 85.6 | 78.4 | 77.9 |
| CC(C)C[C@H](CN)CC(=O)O | 111 | 106 | 106 | 109 | 106 | 103 | 101 | 102 | 95.7 | 94.2 | 93 | 99.4 | 105 | 102 | 96.2 | 101 | 99.3 | 93.6 | 96.1 | 92.3 | 91.5 | 95.6 | 103 | 102 | 107 | 106 | 97.1 | 96 | 98.9 | 96.6 | 95.7 | 97.9 | 98.4 |
| C[C@@H]1C[C@H]2[C@@H]3\C=C(C)/C4=C/C5=C(C[C@]4(C)[C@H]3[C@@H](O)C[C@]2(C)[C@@]1(O)C(=O)COC(C)=O)C=N[N]5C6=CC=CC=C6 | 111 | 107 | 99.2 | 91.8 | 67.8 | 61.6 | 58.1 | 58.7 | 59.6 | 51.4 | 55.8 | 123 | 127 | 98 | 85.1 | 62.3 | 54.6 | 45.6 | 51.5 | 49.2 | 46.5 | 46.9 | 114 | 99.7 | 91.7 | 72.2 | 53.3 | 44.1 | 38 | 39.5 | 38.7 | 38.1 | 32.9 |
| O=C1CSC(=O)N1C(CCc1ccncc1)COc1ccc(-c2cccc([N+](=O)[O-])c2)cc1 (stereo not given) | 115 | 119 | 122 | 118 | 118 | 115 | 111 | 111 | 95.7 | 108 | 90.1 | 122 | 134 | 116 | 107 | 114 | 91.3 | 99.1 | 110 | 87.4 | 93.7 | 82.3 | – | – | – | – | – | – | – | – | – | – | – |
| CC(=O)N1CCN(c2ccc(OCc3nn(C)c(C)c3-c3cccc4c(CCCOc5cc(C)c(Cl)c(C)c5)c(C(=O)O)n(Cc5cccnc5)c34)cc2)CC1 | 104 | 113 | 112 | 115 | 114 | 111 | 113 | 107 | 115 | 113 | 39.2 | 105 | 106 | 115 | 118 | 120 | 127 | 116 | 123 | 125 | 126 | 64.9 | 104 | 115 | 115 | 122 | 125 | 121 | 112 | 110 | 118 | 115 | 66.7 |
